Values of other authors, collected in US20080014271A1, “NOVEL PHARMACEUTICAL COMPOSITIONS COMPRISING LEVETIRACETAM” (UCB, S.A., priority 2006, published 2008).

Tested on: epilepsy

## CC[C@H](C(N)=O)N1CCCC1=O [(R)-(+)-alpha-ethyl-2-oxo-1-pyrrolidine acetamide]
  Activity in the treatment of epilepsy: completely lacks activity
